“And” between values parts separate entries of the source, which are not always exact repeats. Identical values can stand only once. Inconclusive results and toxic doses are left out. The calls were made as follows: active = survival T/C of 150% or more; inactive = T/C below 125% in these data.
System: CD2F1 mice, L1210 leukemia ip, survival T/C
Experiment: NCI In Vivo Anticancer Drug Screen. Data for tumor model L1210 Leukemia (intraperitoneal) in CD2F1 (CDF1) mice
Settings: endpoint: mean survival time, higher = longer survival
In short: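 Mice carrying a transplanted tumor received test compound or vehicle alone. The value is the measurement in the treated group divided by that in the vehicle-treated control group.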

[1] = dose: 12.5 mg/kg/injection, schedule: Q04DX002 (ip), vehicle: saline with Tween-80
[2] = dose: 25.0 mg/kg/injection, schedule: Q04DX002 (ip), vehicle: saline with Tween-80
[3] = dose: 50.0 mg/kg/injection, schedule: Q04DX002 (ip), vehicle: saline with Tween-80
[4] = dose: 50.0 mg/kg/injection, schedule: Q01DX009 (ip), vehicle: saline with Tween-80
[5] = dose: 100.0 mg/kg/injection, schedule: Q01DX009 (ip), vehicle: saline with Tween-80
[6] = dose: 100.0 mg/kg/injection, schedule: Q04DX002 (ip), vehicle: saline with Tween-80
[7] = dose: 200.0 mg/kg/injection, schedule: Q04DX002 (ip), vehicle: saline with Tween-80
[8] = dose: 100.0 mg/kg/injection, schedule: Q04DX003 (ip), vehicle: saline with Tween-80
[9] = dose: 200.0 mg/kg/injection, schedule: Q04DX003 (ip), vehicle: saline with Tween-80
[10] = dose: 400.0 mg/kg/injection, schedule: Q04DX003 (ip), vehicle: saline with Tween-80
[11] = dose: 25.0 mg/kg/injection, schedule: Q01DX009 (ip), vehicle: saline with Tween-80

Measured: T/C

O=C(C(=O)c1ccc(Cl)cc1)c1ccc(Cl)cc1
inactive: dose: 6.25 mg/kg/injection, schedule: Q04DX003 (ip), vehicle: other 94 % of control | dose: 12.5 mg/kg/injection, schedule: Q04DX003 (ip), vehicle: other 90 % of control | dose: 25.0 mg/kg/injection, schedule: Q04DX003 (ip), vehicle: other 90 % of control

CC(C)(C)C1SCC(O)CS1 (stereo not given)
inactive: [1] 105 % of control | [2] 97 % of control | [3] 97 % of control

CN(C=O)NC(=O)Nc1ccccc1
inactive: dose: 75.0 mg/kg/injection, schedule: Q01DX001 (ip), vehicle: saline 100 % of control | dose: 150.0 mg/kg/injection, schedule: Q01DX001 (ip), vehicle: saline 100 % of control | dose: 300.0 mg/kg/injection, schedule: Q01DX001 (ip), vehicle: saline 102 % of control

CC1(C)OCC2OC3(C(=O)O)OC(C)(C)OC3C2O1 (stereo not given)
inactive: dose: 50.0 mg/kg/injection, schedule: Q01DX005 (ip), vehicle: saline with Tween-80 88 % of control | [4] 98 % of control | [3] 108 % of control | dose: 100.0 mg/kg/injection, schedule: Q01DX005 (ip), vehicle: saline with Tween-80 88 % of control | [5] 95 % of control | [6] 97 % of control | dose: 200.0 mg/kg/injection, schedule: Q01DX005 (ip), vehicle: saline with Tween-80 92 % of control | dose: 200.0 mg/kg/injection, schedule: Q01DX009 (ip), vehicle: saline with Tween-80 92 % of control | [7] 93 % of control | dose: 400.0 mg/kg/injection, schedule: Q01DX005 (ip), vehicle: saline with Tween-80 88 % of control | dose: 400.0 mg/kg/injection, schedule: Q01DX009 (ip), vehicle: saline with Tween-80 88 % of control | dose: 400.0 mg/kg/injection, schedule: Q04DX002 (ip), vehicle: saline with Tween-80 86 % of control

COc1ccc(OC)c2c1CCC(=O)C2
inactive: dose: 12.5 mg/kg/injection, schedule: Q01DX009 (ip), vehicle: other 102 % of control | dose: 25.0 mg/kg/injection, schedule: Q01DX009 (ip), vehicle: other 104 % of control | dose: 50.0 mg/kg/injection, schedule: Q01DX009 (ip), vehicle: other 102 % of control | dose: 100.0 mg/kg/injection, schedule: Q01DX009 (ip), vehicle: other 107 % of control | dose: 200.0 mg/kg/injection, schedule: Q01DX009 (ip), vehicle: other 107 % of control

CCCCC(NC(=O)C(C)NC(=O)OCc1ccccc1)C(=O)O (stereo not given)
inactive: [8] 98 % of control | [9] 101 % of control | [10] 98 % of control

O=C1N(CCO)CNC1(c1ccccc1)c1ccccc1
inactive: dose: 50.0 mg/kg/injection, schedule: Q04DX003 (ip), vehicle: saline with Tween-80 94 % of control | [8] 107 % of control | [9] 98 % of control

OC(CF)CCl (stereo not given)
inactive: [4] 96 % of control | dose: 100.0 mg/kg/injection, schedule: Q04DX003 (ip), vehicle: saline 100 % of control | dose: 200.0 mg/kg/injection, schedule: Q04DX003 (ip), vehicle: saline 121 % of control

O=c1nc(Oc2ccccc2)nc2ncccn12
inactive: dose: 3.12 mg/kg/injection, schedule: Q01DX009 (ip), vehicle: saline with Tween-80 100 % of control and 108 % of control | dose: 6.25 mg/kg/injection, schedule: Q01DX009 (ip), vehicle: saline with Tween-80 100 % of control and 101 % of control | dose: 12.5 mg/kg/injection, schedule: Q01DX009 (ip), vehicle: saline with Tween-80 97 % of control and 101 % of control | [11] 98 % of control and 99 % of control | [4] 97 % of control and 102 % of control

C=CCNC(=O)C[n+]1cccc(C(=O)Nc2ccc(Cl)cc2)c1
inactive: [11] 97 % of control | [4] 96 % of control | [5] 102 % of control | [8] 107 % of control

CC(C)(C)c1ccccc1O[Si](C)(C)C
inactive: [4] 105 % of control | [5] 94 % of control | [8] 97 % of control | [9] 94 % of control

C=CCNc1ccc(OC)cc1
inactive: [8] 101 % of control | [9] 95 % of control

CC12C=CC(=O)C=C1CCCC2 (stereo not given)
inactive: [1] 96 % of control | [2] 91 % of control | [3] 96 % of control

CCn1ccc(=O)nc1
inactive: [1] 95 % of control | [2] 95 % of control | [3] 106 % of control

CN(C)S(=O)(=O)c1cc(Cl)ccc1NN
inactive: [8] 98 % of control | [9] 104 % of control | [10] 104 % of control

CCCCCCCCCCCCCCCCCCN (tested in a mixture with another compound)
inactive: [6] 98 % of control | [7] 98 % of control

O=c1cc[nH]c2c(-c3ccccc3)cccc12
inactive: dose: 37.5 mg/kg/injection, schedule: Q01DX009 (ip), vehicle: saline 108 % of control | dose: 75.0 mg/kg/injection, schedule: Q01DX009 (ip), vehicle: saline 105 % of control | dose: 75.0 mg/kg/injection, schedule: Q04DX003 (ip), vehicle: saline 95 % of control | dose: 150.0 mg/kg/injection, schedule: Q01DX009 (ip), vehicle: saline 97 % of control | dose: 150.0 mg/kg/injection, schedule: Q04DX003 (ip), vehicle: saline 98 % of control | dose: 300.0 mg/kg/injection, schedule: Q04DX003 (ip), vehicle: saline 97 % of control

CCCC(CC)OC(=O)Nc1cccc2ccccc12 (stereo not given)
inactive: dose: 100.0 mg/kg/injection, schedule: Q01DX001 (ip), vehicle: saline 100 % of control | dose: 200.0 mg/kg/injection, schedule: Q01DX001 (ip), vehicle: saline 102 % of control | dose: 400.0 mg/kg/injection, schedule: Q01DX001 (ip), vehicle: saline 100 % of control

— PubChem BioAssay AID256 (DTP/NCI, 2004)
